What was measured:
[1] = system: esterase from hog's liver; test: spot test: hydrolysis of substrate on buffer-oxidation agent paper, visual colour evaluation; type: biochemical; design: key: +: coloration; ++: strong coloration; +++: strong and rapid coloration; details: potassium ferricyanide, enzyme about 1000 U/ml., ambient temperature; for Coloration pH 6: pH 6.0 fleece; for Coloration pH 9: pH 9.0 fleece
Method: (§1) In a spot test, there was investigated the hydrolysis of various compounds by appropriate hydrolases (aryl sulphatase, acidic and alkaline phosphatase, esterase, acetyl-β-O-glucosamidase and lipase). The base thereby liberated was simultaneously oxidized by potassium ferricyanide to the colored material and the color formation evaluated visually.
(§2) The rate of hydrolysis was evaluated visually at pH 6.0, as well as at pH 9.0, by spotting a hydrolase solution on to a substrate-buffer-oxidation agent-paper. The enzyme concentration was about 1000 U/ml. and the test temperature was ambient temperature. The non-enzymatic hydrolysis with a 0.9% aqueous sodium chloride solution as sample was evaluated for the purpose of comparison.
(§3) Impregnation solution: 100 mmole/liter potassium dihydrogen phosphate 10 mmole/liter potassium ferricyanide 2% Pluronic® F 68
(§4) The pH value was adjusted to 6.0 with a 2N aqueous solution of potassium hydroxide.
(§5) Impregnation solution: 100 mmole/liter glycine 10 mmole/liter potassium ferricyanide 2% Pluronic® 68
(§6) The pH value was adjusted to 9.0 with a 2N aqueous solution of sodium hydroxide.
(§7) Impregnation: An 8×30 cm. paper fleece (Whatman 3M) was impregnated with 8 ml. of impregnation solution and dried for 30 minutes at 50° C. in a drying cabinet.
(§8) The so impregnated buffer-oxidation agent papers were cut up into 8×2 cm. strips and post-impregnated with substrate solution. Substrate solution/impregnation solution: 5 mg. of the substrate to be tested (or the free base) were dissolved or suspended in 1 ml. methanol and, in each case, 10 μl. thereof applied to the buffer-oxidation agent papers. The solvent was evaporated with a blow drier. On to this substrate oxidation agent surface were then dosed on the hydrolase solutions and evaluated. […]

[2] = system: N-acetyl-β-D-glucosaminidase; test: as above; type: biochemical; design: key to Coloration pH 6 / Coloration pH 9: +: coloration; ++: strong coloration; +++: strong and rapid coloration
Method: as §1, §2, §3, §4, §5, §6, §7, §8

alkaline phosphatase = test: as above; type: biochemical; design: key: +: coloration; ++: strong coloration; +++: strong and rapid coloration; details: potassium ferricyanide, enzyme about 1000 U/ml., ambient temperature; for Coloration pH 6: pH 6.0 fleece; for Coloration pH 9: pH 9.0 fleece
Method: as §1, §2, §3, §4, §5, §6, §7, §8

[3] = target: T1, β-galactosidase labelled immune complex (Escherichia coli, UniProt P00722); test: thyroxine (T4) test strip: colour formation from galactosidase substrate; type: biochemical; details: T4-containing sample, sodium perborate/horseradish peroxidase, after 10 minutes
T1 sequence (P00722 2-1024, one chain of several): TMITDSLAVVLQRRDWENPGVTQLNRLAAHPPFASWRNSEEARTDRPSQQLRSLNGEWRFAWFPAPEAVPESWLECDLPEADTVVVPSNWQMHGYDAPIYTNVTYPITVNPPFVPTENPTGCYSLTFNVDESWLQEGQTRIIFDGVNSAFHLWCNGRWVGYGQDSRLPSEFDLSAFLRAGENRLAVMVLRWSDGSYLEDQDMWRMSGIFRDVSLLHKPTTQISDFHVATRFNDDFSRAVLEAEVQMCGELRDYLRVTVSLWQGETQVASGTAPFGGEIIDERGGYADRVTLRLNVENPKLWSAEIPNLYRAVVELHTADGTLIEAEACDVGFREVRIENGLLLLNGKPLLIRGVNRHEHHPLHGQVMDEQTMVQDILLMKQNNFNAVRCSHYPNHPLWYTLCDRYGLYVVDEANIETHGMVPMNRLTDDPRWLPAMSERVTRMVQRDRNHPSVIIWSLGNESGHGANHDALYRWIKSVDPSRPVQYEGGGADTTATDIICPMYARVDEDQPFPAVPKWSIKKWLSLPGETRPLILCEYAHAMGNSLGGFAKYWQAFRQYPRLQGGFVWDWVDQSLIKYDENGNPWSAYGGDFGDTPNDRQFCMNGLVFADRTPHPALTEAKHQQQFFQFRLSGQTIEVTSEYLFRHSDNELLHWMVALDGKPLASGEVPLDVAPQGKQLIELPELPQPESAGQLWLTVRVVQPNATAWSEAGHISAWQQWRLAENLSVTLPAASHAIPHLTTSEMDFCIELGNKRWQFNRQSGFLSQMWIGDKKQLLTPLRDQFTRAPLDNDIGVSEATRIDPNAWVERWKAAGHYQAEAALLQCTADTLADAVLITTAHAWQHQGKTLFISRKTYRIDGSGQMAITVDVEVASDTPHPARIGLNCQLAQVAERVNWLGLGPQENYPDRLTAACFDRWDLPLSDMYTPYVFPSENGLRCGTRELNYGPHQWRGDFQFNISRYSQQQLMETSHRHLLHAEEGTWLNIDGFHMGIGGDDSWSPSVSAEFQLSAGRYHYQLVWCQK
Method: Fleece 14 is impregnated with a conjugate of β-galactosidase with an antibody against T4.
A piece of paper (Schleicher & Schull 3512) was activated with cyanogen bromide and T4 succinimide ester bound thereon.
d) Fleece 13 serves for the sample application.
For the production of the test carrier 11, the fleece are fixed to a base film 12 as shown in FIG. 2 of the accompanying drawings.
The sample was prepared analogously to Example 15.
The test strip 11 was placed with the end 17 in the solution. The T4-containing sample penetrates into the fleece 13. From there, it flows on into fleece 14 from where it dissolves off the β-galactosidase conjugate. […] The solution which now, besides this immune complex, also contains an excess of the β-galactosidase conjugate, penetrates into fleece 15. This excess is there bound to the paper via bound T4.
The solution which still contains the immune complex penetrates into fleece 16. The process according to the invention for the detection of the β-galactosidase labelled immune complex, which represents the substance with hydrolase activity, there takes place. The more of this complex and thus also the more of T4 was present in the solution, the more strongly has the fleece 16 become red colored after 10 minutes. In the case of the absence of T4, the fleece 16 remains white.

[4] = target: T1, β-galactosidase labelled immune complex; test: hCG test carrier: colour formation from galactosidase substrate; details: hCG-containing sample, sodium perborate/horseradish peroxidase, pH 7, within 10 minutes
lipase = test: spot test: hydrolysis of substrate on buffer-oxidation agent paper, visual colour evaluation; type: biochemical; design: key: +: coloration; ++: strong coloration; +++: strong and rapid coloration; details: potassium ferricyanide, enzyme about 1000 U/ml., ambient temperature
Method: as §1, §2, §3, §4, §5, §6, §7, §8

CCC(=O)Oc1ccc(-c2nc(-c3ccc(N(C)C)cc3)c(C)[nH]2)cc1OC [Example 5a, 4-[4-(4-Dimethylaminophenyl)-5-methyl-1H-imidazol-2-yl]-2-methoxyphenyl propanoate]
Coloration pH 6 [1]: +
Coloration pH 9 [1]: ++

COc1cc(-c2nc(-c3ccc(N(C)C)cc3)c(C)[nH]2)ccc1O[C@@H]1O[C@H](CO)[C@@H](O)[C@H](O)[C@H]1NC(C)=O [Example 8, {4-[4-(4-Dimethylaminophenyl)-5-methyl-1H-imidazol-2-yl]-2-methoxyphenyl}-2-acetamido-2-deoxy-ε-D-glucopyranoside]
suitability as substrate (strong blue coloration) ([2]; at pH 6 and pH 9): very good substrate
Coloration pH 6 ([2]; pH 6.0 fleece, potassium ferricyanide, enzyme about 1000 U/ml., ambient temperature, visual): +++
Coloration pH 9 ([2]; pH 9.0 fleece, potassium ferricyanide, enzyme about 1000 U/ml., ambient temperature, visual): +++

CCCCCCCCCCCC(=O)Oc1ccc(-c2nc(-c3ccc(N(C)C)cc3)c(C)[nH]2)cc1OC [Example 5, 4-[4-(4-Dimethylaminophenyl)-5-methyl-1H-imidazol-2-yl]-2-methoxyphenyl dodecanoate]
Coloration pH 6 [1]: +
Coloration pH 9 [1]: ++

CCCCC(=O)Oc1ccc(-c2nc(-c3ccc(N(C)C)cc3)c(C)[nH]2)cc1OC [Example 5c, 4-[4-(4-Dimethylaminophenyl)-5-methyl-1H-imidazol-2-yl]-2-methoxyphenyl pentanoate]
Coloration pH 6 [1]: ++
Coloration pH 9 [1]: ++

COc1cc(-c2nc(-c3ccc(N(C)C)cc3)c(-c3ccc(N(C)C)cc3)[nH]2)cc(OC)c1OP(=O)(O)O [Example 6c, 4-[4,5-Bis-(4-dimethylaminophenyl)-1H-imidazol-2-yl]-2,6-dimethoxyphenyl dihydrogen phosphate]
Coloration pH 6 (alkaline phosphatase): +
Coloration pH 9 (alkaline phosphatase): ++

CCCCCCCC(=O)Oc1ccc(-c2nc(-c3ccc(N(C)C)cc3)c(C)[nH]2)cc1OC [Example 5d, 4-[4-(4-Dimethylaminophenyl)-5-methyl-1H-imidazol-2yl]-2-methoxyphenyl octanoate]
Coloration pH 6 [1]: ++
Coloration pH 9 [1]: +++

COc1cc(-c2nc(-c3ccc(N(C)C)cc3)c(C)[nH]2)ccc1OC(C)=O [Example 4, 4-[4-(4-Dimethylaminophenyl)-5-methyl-1H-imidazol-2-yl]-2-methoxyphenyl acetate]
Coloration pH 6 [1]: ++
Coloration pH 9 [1]: +++

COc1ccc(-c2nc(-c3ccc(O[C@@H]4O[C@H](CO)[C@H](O)[C@H](O)[C@H]4O)c(OC)c3)[nH]c2-c2ccc(OC)cc2)cc1 [Example 12, 2-(4-β-D-Galactopyranosyloxy-3-methoxyphenyl)-4,5-bis-(4-methoxyphenyl)-I,3-imidazole]
colour of fleece 16 [3]: red colored
colour formed in fleece 6 [4]: red color

COc1cc(-c2nc(-c3ccc(N(C)C)cc3)c(C)o2)ccc1OC(C)=O [Example 4a, 4-[4-(4-Dimethylaminophenyl)-5-methyloxazol-2-yl]-2-methoxyphenyl acetate]
Coloration pH 6 [1]: +++
Coloration pH 9 [1]: +++

COc1cc(-c2nc(-c3ccc(N(C)C)cc3)c(C)[nH]2)ccc1OP(=O)(O)O [Example 6, 4-[4-(4-Dimethylaminophenyl)-5-methyl-1H-imidazol-2-yl]-2-methoxyphenyl dihydrogen phosphate]
Coloration pH 9 (alkaline phosphatase): ++

COc1cc(-c2nc(-c3ccc(N(C)C)cc3)c(-c3ccccc3)[nH]2)cc(OC)c1OP(=O)(O)O [Example 6b, 4-[4-(4-Dimethylaminophenyl)-5-phenyl-1H-imidazol-2-yl]-2,6-dimethoxyphenyldihydrogen phosphate]
Coloration pH 6 (alkaline phosphatase): ++
Coloration pH 9 (alkaline phosphatase): +++

CCCC(=O)Oc1ccc(-c2nc(-c3ccc(N(C)C)cc3)c(C)[nH]2)cc1OC [Example 5b, 4-[4-(4-Dimethylaminophenyl)-5-methyl-1H-imidazol-2-yl]-2-methoxyphenyl butanoate]
Coloration pH 6 [1]: ++
Coloration pH 9 [1]: +++
Coloration pH 6 (lipase; pH 6.0 fleece): ++
Coloration pH 9 (lipase; pH 9.0 fleece): +++

COc1cc(-c2nc(-c3ccc(N(C)C)cc3)c(C)s2)cc(OC)c1OC(C)=O [Example 4b, 4-[4-(4-Dimethylaminophenyl)-5-methylthiazol-2-yl]-2,6-dimethoxyphenyl acetate]
Coloration pH 6 [1]: +
Coloration pH 9 [1]: ++

COc1cc(-c2nc(-c3ccc(N(C)C)cc3)c(-c3ccc(N(C)C)cc3)o2)cc(OC)c1OP(=O)(O)O [Example 7a, 4-[4,5-Bis-(4-dimethylaminophenyl)-oxazol-2-yl]-2,6-dimethoxyphenyl dihydrogen phosphate]
Coloration pH 6 (alkaline phosphatase): ++
Coloration pH 9 (alkaline phosphatase): +++

COc1cc(-c2nc(-c3ccc(N(C)C)cc3)c(C)o2)ccc1OP(=O)(O)O [Example 7, 4-[4-(4-Dimethylaminophenyl)-5-methyl-oxazol-2-yl]-2-methoxyphenyl dihydrogen phosphate]
Coloration pH 6 (alkaline phosphatase): +
Coloration pH 9 (alkaline phosphatase): ++

COc1cc(-c2nc(-c3ccc(N(C)C)cc3)c(C)[nH]2)cc(OC)c1OP(=O)(O)O [Example 6a, 4-[4-(4-Dimethylaminophenyl)-5-methyl-1H-imidazol-2-yl]-2,6-dimethoxyphenyldihydrogen phosphate]
Coloration pH 9 (alkaline phosphatase): +++

COc1cc(-c2nc(-c3ccc(N(C)C)cc3)c(-c3ccc(N(C)C)cc3)[nH]2)cc(OC)c1OC(C)=O [Example 4d, 4-[4,5-Bis-(4-dimethylaminophenyl)-1H-imidazol-2-yl]-2,6-dimethoxyphenyl acetate]
Coloration pH 6 [1]: ++
Coloration pH 9 [1]: ++
